Reference: patent US8536202B2, “Triazole-substituted anthranilamides as pesticides” (Bayer Cropscience AG, priority 2010, dated 2013)
Where two headings read alike, the source gives them in different places.

Legend:
[1] = log P determination by HPLC on reversed-phase columns (EEC Directive 79/831 Annex V.A8); format: physicochemical; details: pH 2.7
How it was run: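 log P from reversed-phase LC-MS retention at pH 2.7, 0.1% formic acid water/acetonitrile gradient 10–95% acetonitrile. Calibrated against C3–C16 unbranched alkan-2-ones, interpolating linearly between adjacent alkanones.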

Lucilia cuprina larvae = test: Lucilia cuprina test (LUCICU); format: in vivo; details: 48 h, read-out: kill in %
Procedure: (§1) Solvent: dimethyl sulphoxide
(§2) An appropriate preparation of active compound is prepared by mixing 10 mg of active compound with 0.5 ml of dimethyl sulphoxide and diluting the concentrate with water to the desired concentration.
Vessels containing horse meat treated with the preparation of active compound at the desired concentration are populated with approximately 20 Lucilia cuprina larvae.
After 2 days, the kill in % is ascertained. Here, 100% means that all of the larvae have been killed; 0% means that no larvae have been killed.

[2] = tested on: caterpillars of the armyworm (Spodoptera frugiperda); test: Spodoptera frugiperda test (SPODFR spray treatment); format: in vivo; details: 168 h, read-out: activity in %
How it was run: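 Maize leaf discs sprayed with compound diluted in emulsifier-containing water (acetone/DMF solvent, alkylaryl polyglycol ether emulsifier), dried, then infested with armyworm caterpillars. Kill scored after 7 days as % mortality, 100% = all caterpillars dead, 0% = none.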

[3] = tested on: green peach aphid (Myzus persicae); test: Myzus test (MYZUPE spray treatment), Use Example 4; format: in vivo; details: 144 h; for pest or weed control at 100 g/ha: read-out: activity in %
How it was run: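 Compound was formulated in acetone/dimethylformamide with alkylaryl polyglycol ether emulsifier and diluted in emulsifier-containing water. It was sprayed onto Chinese cabbage leaf discs infested with all stages of Myzus persicae. Mortality (%) was scored after 6 days, where 100% means all aphids killed.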

[4] = tested on: larvae of the mustard beetle (Phaedon cochleariae); test: Phaedon test (PHAECO spray treatment); format: in vivo; details: 168 h, read-out: activity in %
How it was run: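 Compound dissolved in acetone/dimethylformamide with alkylaryl polyglycol ether emulsifier, then diluted with emulsifier-containing water to test concentration for spray treatment of Phaedon cochleariae larvae. Activity scored after 7 days as % larvae killed (100% = all dead, 0% = none).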

Boophilus microplus = Boophilus microplus test (BOOPMI injection); format: in vivo; details: Rhipicephalus microplus, 168 h, 20 μg/animal, after 7 days, read-out: activity in % (no fertile eggs laid)
Procedure: as §1
An appropriate preparation of active compound is prepared by mixing 10 mg of active compound with 0.5 ml of solvent and diluting the concentrate with solvent to the desired concentration. The solution of active compound is injected into the abdomen (Boophilus microplus), and the animals are transferred to dishes and kept in a climatized room. Activity is assessed by deposition of fertile eggs.
After 7 days, the activity in % is assessed. Here, 100% means that none of the ticks has laid fertile eggs.

adult Musca domestica = test: Musca domestica test (MUSCDO); format: in vivo; details: 48 h, read-out: kill in %
Procedure: as §1
as §2, with “concentration. Vessels containing a sponge treated with the preparation of active compound at the desired concentration are populated with adult Musca domestica.” for “concentration.”
After 2 days, the kill in % is ascertained. Here, 100% means that all of the flies have been killed; 0% means that no flies have been killed.

[5] = reversed-phase C18 HPLC column, HPLC on reversed-phase columns (C 18), EEC Directive 79/831 Annex V.A8, read-out: logP

Row | SMILES | pest or weed control at 100 g/ha ([2]; 100 g/ha, after 7 days) [%] | pest or weed control at 100 g/ha ([3]; 100 g/ha, after 6 days) [%] | pest or weed control at 100 g/ha ([4]; 100 g/ha, after 7 days) [%] | pest or weed control at 0.02 mg (Boophilus microplus) [%] | chromatographic logP [1] | pest or weed control at 100 ppm (Lucilia cuprina larvae) [%] | also measured
1 | Cc1cc(C#N)cc(C(=O)NC(C)(C)C)c1NC(=O)c1cc(Cn2cc(C(F)(F)F)nn2)nn1-c1ncccc1Br [Example 7] | 100 | 100 | 100 | 100 |  |  | chromatographic logP [1, 5]: 3.44; pest or weed control at 100 ppm (Lucilia cuprina larvae; 100 ppm, after 2 days): 100%
2 | CC(C)(C)NC(=O)c1cc(Cl)cc(Cl)c1NC(=O)c1cc(Cn2ncc(C(F)(F)F)n2)nn1-c1ncccc1Cl [Example 151] | 100 | 100 | 100 | 100 | 3.8 | 100 | 
3 | CNC(=O)c1cc(C#N)cc(C)c1NC(=O)c1cc(Cn2ncc(C(F)(F)F)n2)nn1-c1ncccc1Cl [Example 124] | 100 | 100 | 100 | 100 | 2.68 | 100 | pest or weed control at 100 ppm (adult Musca domestica): 80%
4 | Cc1cc(Br)cc(C(=O)NC(C)C)c1NC(=O)c1cc(Cn2ncc(C(F)(F)F)n2)nn1-c1ncccc1Cl [Example 175] | 100 |  | 100 | 100 | 3.55 | 100 | 
5 | Cc1cc(Cl)cc(C(N)=O)c1NC(=O)c1cc(Cn2ncc(C(F)(C(F)(F)F)C(F)(F)F)n2)nn1-c1ncccc1Cl [Example 263] | 100 | 80 | 100 | 100 | 3.48 | 100 | pest or weed control at 100 ppm (adult Musca domestica): 100%
6 | CNC(=O)c1cc(Br)cc(C)c1NC(=O)c1cc(Cn2ncc(C(F)(F)F)n2)nn1-c1ncccc1Cl [Example 172] | 100 | 100 | 100 | 100 | 3.1 | 100 | pest or weed control at 100 ppm (adult Musca domestica): 80%
7 | Cc1cc(Br)cc(C(=O)NC2CC2)c1NC(=O)c1cc(Cn2ncc(C(F)(F)F)n2)nn1-c1ncccc1Cl [Example 174] | 100 | 100 | 100 | 100 | 3.28 | 100 | 
8 | Cc1cc(Cl)cc(C(=O)NC(C)C2CC2)c1NC(=O)c1cc(Cn2ncc(C(F)(F)F)n2)nn1-c1ncccc1Cl (centres unmarked) [Example 136] | 100 |  | 100 | 100 | 3.8 | 100 | 
9 | Cc1cc(C#N)cc(C(=O)NC(C)C2CC2)c1NC(=O)c1cc(Cn2cc(C(F)(C(F)(F)F)C(F)(F)F)nn2)nn1-c1ncccc1Cl (centres unmarked) [Example 218] | 100 |  | 100 | 100 |  |  | pest or weed control at 100 ppm (adult Musca domestica; 100 ppm, after 2 days): 85%; chromatographic logP [1, 5]: 3.73; pest or weed control at 100 ppm (Lucilia cuprina larvae; 100 ppm, after 2 days): 100%
10 | CC(NC(=O)c1cc(Cl)cc(Cl)c1NC(=O)c1cc(Cn2ncc(C(F)(F)F)n2)nn1-c1ncccc1Cl)C1CC1 (centres unmarked) [Example 147] | 100 |  | 100 | 100 | 3.73 | 100 | 
11 | CNC(=O)c1cc(Cl)cc(C)c1NC(=O)c1cc(Cn2nnc3cc(C(F)(F)F)ccc32)nn1-c1ncccc1Cl [Example 70] | 100 | 100 | 100 | 100 | 3.13 | 100 | 
12 | CNC(=O)c1cc(Cl)cc(C)c1NC(=O)c1cc(Cn2ncc(C(F)(F)F)n2)nn1-c1ncccc1Cl [Example 135] | 100 | 90 | 100 | 100 | 2.99 | 100 | 
13 | Cc1cc(I)cc(C(=O)NC(C)(C)C)c1NC(=O)c1cc(Cn2ncc(C(F)(F)F)n2)nn1-c1ncccc1Cl [Example 162] | 100 |  | 100 | 100 | 4.11 | 100 | 
14 | NC(=O)c1cc(Cl)cc(Cl)c1NC(=O)c1cc(Cn2cc(C(F)(C(F)(F)F)C(F)(F)F)nn2)nn1-c1ncccc1Cl [Example 247] | 100 |  | 100 | 100 | 3.13 | 100 | pest or weed control at 100 ppm (adult Musca domestica): 100%
15 | CSC[C@H](C)NC(=O)c1cc(Cl)cc(Cl)c1NC(=O)c1cc(Cn2ncc(C(F)(F)F)n2)nn1-c1ncccc1Cl [Example 155] | 100 | 100 | 100 | 100 | 3.64 | 100 | 
16 | Cc1cc(Cl)cc(C(=O)NC(C)C)c1NC(=O)c1cc(Cn2cc(C(F)(F)C(F)(F)C(F)(F)F)nn2)nn1-c1ncccc1Cl [Example 340] |  |  |  |  |  |  | chromatographic logP ([1]; HPLC on reversed-phase columns (C 18), EEC Directive 79/831 Annex V.A8, read-out: logP): 3.8; pest or weed control at 100 g/ha [2]: 100%; pest or weed control at 100 g/ha [3]: 100%; pest or weed control at 100 g/ha [4]: 100%
17 | Cc1cc(Cl)cc(C(=O)NC(C)C2CC2)c1NC(=O)c1cc(Cn2cc(C(F)(F)F)nn2)nn1-c1ncccc1Cl (centres unmarked) [Example 193] | 100 | 100 | 100 |  | 3.34 |  | 
18 | CSC[C@H](C)NC(=O)c1cc(I)cc(C)c1NC(=O)c1cc(Cn2cc(C(F)(F)F)nn2)nn1-c1ncccc1Cl [Example 212] | 100 | 100 | 100 |  | 3.59 |  | 
19 | CSC[C@H](C)NC(=O)c1cc(C#N)cc(C)c1NC(=O)c1cc(Cn2nc(C(F)(F)F)c(C(F)(F)F)n2)nn1-c1ncccc1Cl [Example 400] | 100 |  | 100 |  |  |  | chromatographic logP [1, 5]: 4.05; pest or weed control at 500 g/ha ([3]; 500 g/ha, after 6 days): 100%
20 | CNC(=O)c1cc(C#N)cc(C)c1NC(=O)c1cc(Cn2cc(C(F)(F)F)nn2)nn1-c1ccccc1Cl [Example 293] | 100 | 80 | 100 |  |  |  | chromatographic logP [1, 5]: 2.63
21 | CNC(=O)c1cc(Cl)cc(Cl)c1NC(=O)c1cc(Cn2ncc(C(F)(C(F)(F)F)C(F)(F)F)n2)nn1-c1ncccc1Cl [Example 273] | 100 | 100 | 100 |  | 3.69 |  | 
22 | Cc1cc(Cl)cc(C(=O)NC(C)C)c1NC(=O)c1cc(Cn2ncc(C(F)(F)C(F)(F)F)n2)nn1-c1ncccc1Cl [Example 361] | 100 | 80 | 100 |  | 3.89 |  | 
23 | CNC(=O)c1cc(C#N)cc(C)c1NC(=O)c1cc(Cn2ncc(C(F)(F)F)n2)nn1-c1ccccc1Cl [Example 284] | 100 | 80 | 100 |  |  |  | chromatographic logP [1, 5]: 3.1
24 | CSC[C@H](C)NC(=O)c1cc(Cl)cc(C)c1NC(=O)c1cc(Cn2nc(C(F)(F)F)c(C(F)(F)F)n2)nn1-c1ncccc1Cl [Example 408] | 100 | 90 | 100 |  | 4.4 |  | 
